Test results taken from patent publication US20190210996A1, “NOVEL COMPOUNDS” (GLAXOSMITHKLINE INTELLECTUAL PROPERTY DEVELOPMENT LIMITED, priority 2016, published 2019).

What was measured:
[1] = target: T1, LATS1 (Homo sapiens, UniProt O95835); test: Expression proteomics in THP-1 cells: LATS1 protein level; format: cell-based; conditions: LATS1, THP-1 cells
T1 construct: endogenous in cells; host or cells: THP-1
T1 sequence (O95835 1-1130): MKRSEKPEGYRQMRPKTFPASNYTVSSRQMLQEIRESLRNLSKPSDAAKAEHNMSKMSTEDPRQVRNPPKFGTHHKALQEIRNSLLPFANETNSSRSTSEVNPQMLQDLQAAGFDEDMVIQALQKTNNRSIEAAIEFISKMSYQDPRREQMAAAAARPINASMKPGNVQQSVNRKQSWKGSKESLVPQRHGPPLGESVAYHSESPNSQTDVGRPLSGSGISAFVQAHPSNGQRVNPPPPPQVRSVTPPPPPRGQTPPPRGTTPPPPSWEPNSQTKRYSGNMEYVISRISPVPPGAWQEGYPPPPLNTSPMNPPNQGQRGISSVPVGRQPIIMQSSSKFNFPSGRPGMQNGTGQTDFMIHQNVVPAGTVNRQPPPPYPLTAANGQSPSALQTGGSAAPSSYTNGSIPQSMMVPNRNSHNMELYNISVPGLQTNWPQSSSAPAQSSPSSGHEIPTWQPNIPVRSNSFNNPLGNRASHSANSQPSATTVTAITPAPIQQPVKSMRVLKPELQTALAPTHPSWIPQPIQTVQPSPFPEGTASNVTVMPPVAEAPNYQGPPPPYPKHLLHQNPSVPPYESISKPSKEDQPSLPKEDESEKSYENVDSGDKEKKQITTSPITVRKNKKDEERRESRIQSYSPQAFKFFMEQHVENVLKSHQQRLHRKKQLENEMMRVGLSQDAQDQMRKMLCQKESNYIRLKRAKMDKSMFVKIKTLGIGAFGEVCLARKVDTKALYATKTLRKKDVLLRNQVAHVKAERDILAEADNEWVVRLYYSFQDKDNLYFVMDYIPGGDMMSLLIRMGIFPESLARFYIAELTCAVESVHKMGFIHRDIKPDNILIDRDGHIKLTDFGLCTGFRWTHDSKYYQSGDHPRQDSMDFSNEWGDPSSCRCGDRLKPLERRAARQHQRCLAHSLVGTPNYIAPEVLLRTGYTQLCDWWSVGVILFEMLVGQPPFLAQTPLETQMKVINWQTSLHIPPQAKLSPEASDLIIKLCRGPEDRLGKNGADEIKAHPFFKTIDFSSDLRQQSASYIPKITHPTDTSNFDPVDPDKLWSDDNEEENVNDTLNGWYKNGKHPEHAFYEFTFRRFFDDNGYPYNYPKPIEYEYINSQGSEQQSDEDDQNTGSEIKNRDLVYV
Experimental: (§1) THP-1 cells were seeded at a concentration of 3×10^6 cells in T175 flasks with 60 mL growth medium (RPMI1640+10% FBS). […] of a 10× compound solution prepared in growth medium (DMSO), CEREBLON_PROTAC) was added and the cells were treated for the indicated time points (6 or 24 h) at 37° C., 5% CO2. For harvesting the cells were collected into falcon tubes on ice, centrifuged and washed twice in cold PBS (Life technologies). After the last washing step the supernatant was removed and the pellets were snap-frozen in liquid N2 and stored at −80° C. and lysed in 2% SDS for 3 min at 95° C. in a thermomixer (Thermo Fisher Scientific), followed by digestion of DNA with Benzonase at 37° C. for 1.5 h. Lysate was cleared by centrifugation an protein concentration in supernatant was determined by BCA assay.
(§2) Leukemia 25, 89-100 (2011).
(§3) Samples were dried in vacuo and resuspended in 0.05% trifluoroacetic acid in water. Of the sample, 50% was injected into an Ultimate3000 nanoRLSC (Dionex, Sunnyvale, Calif.) coupled to a Q Exactive HF (Thermo Fisher Scientific). Peptides were trapped on a 5 mm×300 μm C18 column (Pepmap100, 5 μm, 300 Å, Thermo Fisher Scientific) in water with 0.05% TFA at 60° C. Separation was performed on custom 50 cm×[…] (ID) reversed-phase columns (Reprosil) at 55° C. Gradient elution was performed from 2% acetonitrile to 40% acetonitrile in 0.1% formic acid and 3.5% DMSO over 2 hours. Samples were online injected into Q-Exactive HF mass spectrometers operating with a data-dependent top 10 method. MS spectra were acquired by using 60.000 resolution and an ion target of 3×10^6. Higher energy collisional dissociation (HCD) scans were performed with 35% NCE at 30.000 resolution (at m/z 200), and the ion target settings was set to 2×10^5 so as to avoid coalescence (Werner, T. et al. Ion Coalescence of Neutron Encoded TMT 10-Plex Reporter Ions. Anal. Chem. 86, 3594-3601 (2014).
(§4) The first search was performed with 30 parts per million mass tolerance for peptide precursors and 30 mD (HCD) mass tolerance for fragment ions followed by a final search using recalibrated data with a 10 parts per million mass tolerance for peptide precursors and 20 mD (HCD) mass tolerance for fragment ions. Carbamidomethylation of cysteine residues and TMT modification of lysine residues were set as fixed modifications and methionine oxidation, and N-terminal acetylation of proteins and TMT modification of peptide N-termini were set as variable modifications. […]
(§5) Nat Biotech 29, 255-265 (2011). this measure is referred to as ion area Savitski, M. M. et al. Delayed Fragmentation and Optimized Isolation Width Settings for Improvement of Protein Identification and Accuracy of Isobaric Mass Tag Quantification on Orbitrap-Type Mass Spectrometers. […]

[2] = target: T2, PRKAA1 (Homo sapiens, UniProt Q13131); test: Expression proteomics in THP-1 cells: PRKAA1 protein level; format: cell-based; conditions: PRKAA1, THP-1 cells
T2 construct: endogenous in cells; host or cells: THP-1
T2 sequence (Q13131 whole entry): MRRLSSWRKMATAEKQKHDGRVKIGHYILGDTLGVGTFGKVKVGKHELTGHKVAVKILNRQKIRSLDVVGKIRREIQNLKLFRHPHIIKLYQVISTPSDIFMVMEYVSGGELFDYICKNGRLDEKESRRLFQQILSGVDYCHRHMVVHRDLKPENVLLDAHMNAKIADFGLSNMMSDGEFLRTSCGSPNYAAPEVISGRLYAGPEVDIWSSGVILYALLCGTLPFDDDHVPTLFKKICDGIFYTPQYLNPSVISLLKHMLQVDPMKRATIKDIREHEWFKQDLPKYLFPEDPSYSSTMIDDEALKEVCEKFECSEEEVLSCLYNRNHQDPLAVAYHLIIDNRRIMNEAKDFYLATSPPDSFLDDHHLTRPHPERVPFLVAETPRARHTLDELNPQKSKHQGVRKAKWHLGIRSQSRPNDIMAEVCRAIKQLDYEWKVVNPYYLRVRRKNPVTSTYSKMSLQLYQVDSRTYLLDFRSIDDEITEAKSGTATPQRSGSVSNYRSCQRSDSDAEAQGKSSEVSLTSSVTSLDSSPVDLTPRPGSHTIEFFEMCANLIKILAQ
T2 sequence (Q9Y478 2-270 partner limits assumed): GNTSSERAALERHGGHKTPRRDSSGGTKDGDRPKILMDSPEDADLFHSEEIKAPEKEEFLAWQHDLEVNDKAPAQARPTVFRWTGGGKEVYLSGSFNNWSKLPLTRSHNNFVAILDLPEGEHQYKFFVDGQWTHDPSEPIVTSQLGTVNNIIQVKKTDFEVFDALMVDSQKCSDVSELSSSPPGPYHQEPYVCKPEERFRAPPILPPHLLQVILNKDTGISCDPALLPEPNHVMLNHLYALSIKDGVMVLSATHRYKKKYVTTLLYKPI
T2 sequence (P54619 whole entry partner): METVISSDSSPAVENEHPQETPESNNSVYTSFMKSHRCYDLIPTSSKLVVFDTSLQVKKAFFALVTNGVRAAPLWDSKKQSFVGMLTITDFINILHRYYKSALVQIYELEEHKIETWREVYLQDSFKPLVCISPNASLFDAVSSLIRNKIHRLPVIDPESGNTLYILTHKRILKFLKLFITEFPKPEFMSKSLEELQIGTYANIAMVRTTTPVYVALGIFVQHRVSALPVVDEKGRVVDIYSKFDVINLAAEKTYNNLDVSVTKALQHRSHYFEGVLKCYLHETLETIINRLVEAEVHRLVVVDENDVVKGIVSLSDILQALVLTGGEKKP
Experimental: as §1, §2, §3, §4, §5

For `CNC(=O)c1ccccc1Nc1nc(Nc2ccc(N3CCN(CCOCCOCCOCCOCC(=O)Nc4cccc5c4CN(C4CCC(=O)NC4=O)C5=O)CC3)cc2)ncc1Cl.O=CO` (centres unmarked) [CEREBLON_PROTAC, 14-(4-(4-((5-Chloro-4-((2-(methylcarbamoyl)phenyl)amino)pyrimidin-2-yl)amino)phenyl)piperazin-1-yl)-N-(2-(2,6-dioxopiperidin-3-yl)-1-oxoisoindolin-4-yl)-3,6,9,12-tetraoxatetradecan-1-amide formate], which “log2 rel. fc. to vehicle control” value ([1]; 24 h 0.1 μM, n = 1) is on record?
The value was −1.02.

What about the “log2 rel. fc. to vehicle control” value ([1]; 24 h 0.1 μM, n = 2) of the same compound?
Its value is −1.01.

And the “log2 rel. fc. to vehicle control” value ([1]; 24 h 1 μM, n = 1)?
The value was −1.46.

What about the “log2 rel. fc. to vehicle control” value ([1]; 24 h 1 μM, n = 2) of the same compound?
The value was −1.55.

And the “log2 rel. fc. to vehicle control” value ([2]; 24 h 0.1 μM, n = 1)?
The value was −0.38.

And the “log2 rel. fc. to vehicle control” value ([2]; 24 h 0.1 μM, n = 2)?
The value was −0.74.

What about the “log2 rel. fc. to vehicle control” value ([2]; 24 h 1 μM, n = 1) of the same compound?
Its value is −1.06.

What about the “log2 rel. fc. to vehicle control” value ([2]; 24 h 1 μM, n = 2) of the same compound?
The value was −1.35.
